Assay results reported in PMC4138887, “Natural Product Polyamines That Inhibit Human Carbonic Anhydrases” (BioMed Research International, 2014).
Values after ≈ are worked out from the molar mass of the structure shown.

Experiments:
[1] = target: T1, hCA II (Homo sapiens, UniProt P00918); assay: stopped-flow CO2 hydration CA inhibition assay; format: biochemical; conditions: recombinant human CA II; stopped-flow CO2 hydrase assay; errors ±5%, three determinations; read-out: K i CA II
T1 construct: made in house; host or cells: E. coli
Text: (§1) An Applied Photophysics stopped-flow instrument was used for assaying the CA-catalyzed CO2 hydration activity [26]. IC50 values were obtained from dose response curves working at seven different concentrations of test compound; by fitting the curves using PRISM (http://www.graphpad.com/) and nonlinear least squares methods, values represent the mean of at least three different determinations as described by us previously [27]. The inhibition constants (K i) were then derived by using the Cheng-Prusoff equation [28] as follows: K i = IC50/(1 + [S]/K m), where [S] represents the CO2 concentration at which the measurement was carried out and K m is the concentration of substrate at which the enzyme activity is at half maximal. All enzymes used were recombinant, produced in E. coli as reported earlier [29, 30].

[2] = target: T2, hCA I (Homo sapiens, UniProt P00915); assay: stopped-flow CO2 hydration CA inhibition assay; format: biochemical; conditions: recombinant human CA I; stopped-flow CO2 hydrase assay; errors ±5%, three determinations; read-out: K i CA I
T2 construct: made in house; host or cells: E. coli
T2 sequence (P00915 whole entry): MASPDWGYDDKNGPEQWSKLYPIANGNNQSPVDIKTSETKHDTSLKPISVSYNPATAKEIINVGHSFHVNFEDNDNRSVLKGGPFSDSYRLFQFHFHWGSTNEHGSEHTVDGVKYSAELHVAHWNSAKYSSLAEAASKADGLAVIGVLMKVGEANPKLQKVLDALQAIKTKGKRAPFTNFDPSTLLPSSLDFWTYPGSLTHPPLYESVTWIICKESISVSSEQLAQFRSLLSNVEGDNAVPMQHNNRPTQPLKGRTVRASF
Text: as §1

[3] = target: T3, hCA IV (Homo sapiens, UniProt P22748); assay: stopped-flow CO2 hydration CA inhibition assay; format: biochemical; conditions: recombinant human CA IV; stopped-flow CO2 hydrase assay; errors ±5%, three determinations; read-out: K i CA IV
T3 construct: made in house; host or cells: E. coli
T3 sequence (P22748 19-312): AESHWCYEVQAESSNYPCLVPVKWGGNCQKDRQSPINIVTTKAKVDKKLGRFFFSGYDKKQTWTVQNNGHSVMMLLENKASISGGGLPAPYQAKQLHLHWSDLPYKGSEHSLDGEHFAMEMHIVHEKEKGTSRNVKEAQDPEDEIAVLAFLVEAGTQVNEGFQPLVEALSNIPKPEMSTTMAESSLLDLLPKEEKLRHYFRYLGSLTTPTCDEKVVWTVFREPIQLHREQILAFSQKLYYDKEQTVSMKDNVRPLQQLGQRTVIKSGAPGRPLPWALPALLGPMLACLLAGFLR
Text: as §1

[4] = target: T4, hCA XII (Homo sapiens, UniProt O43570); assay: stopped-flow CO2 hydration CA inhibition assay; format: biochemical; conditions: recombinant human CA XII; stopped-flow CO2 hydrase assay; errors ±5%, three determinations; read-out: K i CA XII
T4 construct: made in house; host or cells: E. coli
T4 sequence (O43570 25-354): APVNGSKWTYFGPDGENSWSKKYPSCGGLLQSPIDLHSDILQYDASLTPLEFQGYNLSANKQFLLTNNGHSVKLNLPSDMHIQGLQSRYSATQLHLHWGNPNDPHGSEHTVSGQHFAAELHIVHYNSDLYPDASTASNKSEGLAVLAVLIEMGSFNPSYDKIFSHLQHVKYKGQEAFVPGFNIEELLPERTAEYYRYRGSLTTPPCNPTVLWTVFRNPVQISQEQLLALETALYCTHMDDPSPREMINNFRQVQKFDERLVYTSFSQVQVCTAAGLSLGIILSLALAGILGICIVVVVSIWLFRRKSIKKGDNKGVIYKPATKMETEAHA
Text: as §1

[5] = target: T5, hCA XIV (Homo sapiens, UniProt Q9ULX7); assay: stopped-flow CO2 hydration CA inhibition assay; format: biochemical; conditions: recombinant human CA XIV; stopped-flow CO2 hydrase assay; errors ±5%, three determinations; read-out: K i CA XIV
T5 construct: made in house; host or cells: E. coli
T5 sequence (Q9ULX7 16-337): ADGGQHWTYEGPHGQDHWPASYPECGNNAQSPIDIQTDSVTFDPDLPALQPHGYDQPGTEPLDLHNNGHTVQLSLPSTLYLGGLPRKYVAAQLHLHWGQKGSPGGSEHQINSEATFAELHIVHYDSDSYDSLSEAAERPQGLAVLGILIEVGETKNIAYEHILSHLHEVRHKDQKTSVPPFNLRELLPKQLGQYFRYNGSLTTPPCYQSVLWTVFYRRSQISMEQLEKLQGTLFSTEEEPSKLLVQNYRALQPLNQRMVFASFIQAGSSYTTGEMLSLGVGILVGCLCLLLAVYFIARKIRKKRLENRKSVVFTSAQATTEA
Text: An Applied Photophysics stopped-flow instrument was used for assaying the CA-catalyzed CO2 hydration activity [26]. IC50 values were obtained from dose response curves working at seven different concentrations of test compound; by fitting the curves using PRISM (http://www.graphpad.com/) and nonlinear least squares methods, values represent the mean of at least three different determinations as described by us previously [27]. The inhibition constants (K i) were then derived by using the Cheng-Prusoff equation [28] as follows: K i = IC50/(1 + [S]/K m), where [S] represents the CO2 concentration at which the measurement was carried out and K m is the concentration of substrate at which the enzyme activity is at half maximal.

[6] = test system: Pseudomonas aeruginosa; set-up: method as in PMID 22515429; conditions: antibacterial, cited from earlier work
[7] = target: T6, hCA IX (Homo sapiens, UniProt Q16790); assay: stopped-flow CO2 hydration CA inhibition assay; format: biochemical; conditions: recombinant human CA IX; stopped-flow CO2 hydrase assay; errors ±5%, three determinations; read-out: K i CA IX
T6 construct: made in house; host or cells: E. coli
Text: as §1

[8] = test system: drug sensitive Plasmodium falciparum parasite line (3D7); set-up: method as in earlier work; conditions: drug sensitive parasite line 3D7; read-out: IC50 towards Plasmodium falciparum 3D7; cited from earlier work

Molecule	Ki [1]	Ki [2]	Ki [3]	Ki [4]	Ki [5]	MIC against Pseudomonas aeruginosa [6]	IC50 ([6]; read-out: IC50 against Pseudomonas aeruginosa)	Ki [7]	IC50 [8]
COc1c(Br)cc(/C=C/C(=O)NCCCNCCCCNCCCN)cc1Br [Polyamine 1, ianthelliformisamine A]	410 nM	1760 nM	6720 nM	2810 nM	2120 nM	35 µM (≈ 18.2 µg/mL)	6800 nM	200 nM	
COc1c(Br)cc(/C=C/C(=O)NCCCNCCCCN)cc1Br [Polyamine 2, ianthelliformisamine B]	370 nM	770 nM	9100 nM	3480 nM	2280 nM			350 nM	
COc1c(Br)cc(/C=C/C(=O)NCCCNCCCCNCCCNC(=O)/C=C/c2cc(Br)c(OC)c(Br)c2)cc1Br [Polyamine 3, ianthelliformisamine C]	350 nM	860 nM	9080 nM	3500 nM	6960 nM			270 nM	
O=C(NCCCCNCCCNC(=O)c1ccc(O)c(O)c1)c1ccc(O)c(O)c1 [Polyamine 5, pistillarin]	340 nM	790 nM	7030 nM	4210 nM	1520 nM			360 nM	1900 nM
spermatinamine [Polyamine 4]	480 nM	850 nM	> 20000 nM	> 20000 nM	2720 nM			340 nM	230 nM
